Experimental data from patent US20170247409A1, “ABIETANE-TYPE DITERPENOIDS” (UNIVERSITY OF HELSINKI, priority 2014, published 2017).
In brackets after ≈: the same amount, converted by molar mass. Several values for one entry are separate records, joined by “and”; a condition that tells them apart may be missing. Equal values may be shown once. Read-outs that look alike come from different tables or passages of the source.

How the values were obtained:
[1] = test system: S. aureus ATCC 25923 biofilms; assay: Viable plate counts and Log Reduction of S. aureus ATCC 25923 biofilms; format: cell-based, Staphylococcus aureus; details: 400 μM, viable plate counts
Experimental: The viability of S. aureus (ATCC 25923) biofilms left upon exposure to compounds 20, 21, 22 and 25 was determined using viable plate counts and calculating the Log Reduction (Log R) value. This procedure involves scrapping the biofilms off the substrate, disaggregating them by sonication and plating the resulting suspension in agar. The method is highly laborious but it is the gold standard for the quantification of anti-biofilm efficacy (Pitts et al. 2003). […] Of note, a log R value of 2 represents a reduction of 99% of the viable cells in the biofilms, and typically, a log R of 3 is considered a relevant indicator of the compound efficacy as an anti-biofilm agent.

S. aureus Newman = assay: Anti-biofilm potency against S. aureus Newman biofilms; format: cell-based, Staphylococcus aureus
Text: In fact, only 2-3 fold-higher concentrations of the compounds were needed to kill existing biofilms, in comparison to inhibiting bacterial colonization. […] Anti-biofilm potencies were all in the micromolar range and they were particularly significant for compound 22. […] The activity was also confirmed against S. aureus Newman strain. Potency values calculated for the S. aureus Newman (Table 3) were very similar to the values registered for S. aureus ATCC 25923.

[2] = test system: S. aureus ATCC 25923 biofilms; assay: Anti-biofilm viability assay with redox dye, pre- and post-exposure, S. aureus ATCC 25923 biofilms; format: cell-based, Staphylococcus aureus; details: for % inhibition, Post-biofilm formation: at 400 μM, existing biofilms; for inhibition at 400 µM: ATCC25923
single-cell bacteria = assay: Antibacterial activity (MIC) against single-cell (planktonic) bacteria; format: cell-based; details: Staphylococcus aureus, in the absence of biofilms, strain not stated
Text: We selected six of the active compounds in the post-exposure assays namely, compounds 20, 21, 22, 25, 31 and 32 for the follow-up studies. […] In this mode of the assay, the interaction of the compounds occurs initially with single-cell bacteria (that is, a planktonic solution) before biofilms are formed. Therefore, we tested additionally if the compounds could exert antibacterial activity against single-cell bacteria, in the absence of biofilms. Based solely on conventional MIC and MBC values, antibacterial activities against single-cell bacteria were also high for the derivatives. […] The antibacterial activity order 22>21>25>31>20>32 correlated very well with the measured activity in preventing biofilm formation.

HL cells = assay: Tolerability of mammalian cells, resazurin viability assay; format: cell-based, human; details: concentrations of up to 100 μM; 24 hours exposure
Experimental: Viability values were measured in acute conditions (24 hours exposure) using the resazurin assay as in Karlsson et al, 2012 (Eur J Pharm Sci. 2012 Aug 30;47(1):190-205). […] The least tolerated molecule was 25, as only 23% (±5.9) of cells remained viable upon exposure to 100 μM. However, concentrations up to 30 μM caused no cytotoxicity (90.2% of viable cells, ±0.5).

[3] = test system: S. epidermidis ATCC 12228; assay: Anti-biofilm activity against S. epidermidis ATCC 12228; format: cell-based, Staphylococcus epidermidis; details: tested at IC50 conc. measured against S. aureus ATCC 25923
Experimental: (§1) Four of the compounds were also tested against gram-negative E. coli biofilms as well as other Staphylococcal strains, at the corresponding IC50 values measured against S. aureus ATCC 25923 (Table 4). […] Nonetheless, all the compounds presented below were found active against S. epidermidis (ATCC 12228 and ATCC 35984) strains (Table 3).

E. coli XL1 blue = assay: Anti-biofilm activity against E. coli XL1 blue biofilms; format: cell-based, Escherichia coli; details: tested at IC50 conc. measured against S. aureus ATCC 25923
Experimental: as §1

[4] = test system: S. epidermidis ATCC 35984; assay: Anti-biofilm activity against S. epidermidis ATCC 35984; format: cell-based, Staphylococcus epidermidis; details: tested at IC50 conc. measured against S. aureus ATCC 25923
Experimental: as §1

S. aureus biofilm = details: Fallarero et al, 2013; cited from earlier work
[5] = Staphylococcus aureus, S. aureus Newman, read-out: Potency, IC50 Post-biofilm formation
[6] = Staphylococcus aureus, S. aureus Newman, read-out: Potency, IC50 Prior-to-biofilm formation
[7] = Staphylococcus aureus, S. aureus Newman, value in parentheses, read-out: Potency, IC50 Post-biofilm formation
[8] = Staphylococcus aureus, S. aureus Newman, value in parentheses, read-out: Potency, IC50 Prior-to-biofilm formation
[9] = Staphylococcus aureus, ATCC25923, 50% inhibition of biofilm viability, S. aureus ATCC 25923, read-out: Potency, IC50 Prior-to-biofilm formation
[10] = Staphylococcus aureus, ATCC25923, 50% inhibition of biofilm viability, S. aureus ATCC 25923, value in parentheses, read-out: Potency, IC50 Prior-to-biofilm formation
[11] = Staphylococcus aureus, ATCC25923, 24 h, measured 24 hours after adding to existing biofilms, S. aureus ATCC 25923, read-out: Potency, IC50 Post-biofilm formation
[12] = Staphylococcus aureus, ATCC25923, 24 h, measured 24 hours after adding to existing biofilms, S. aureus ATCC 25923, value in parentheses, read-out: Potency, IC50 Post-biofilm formation
[13] = Staphylococcus aureus, post-exposure, S. aureus ATCC 25923, read-out: % Inhibition 400 μM POST
[14] = Staphylococcus aureus, pre-exposure, S. aureus ATCC 25923, read-out: % Inhibition 400 μM PRE

Compound	MIC (single-cell bacteria) [µg/mL]	IC50 (S. aureus Newman; [5]) [µM]	IC50 (S. aureus Newman; [6]) [µM]	IC50 (S. aureus Newman; [7]) [µg/mL]	IC50 (S. aureus Newman; [8]) [µg/mL]	IC50 [2, 9] [µM]	IC50 [2, 10] [µg/mL]	IC50 [2, 11] [µM]	IC50 [2, 12] [µg/mL]	inhibition at 400 µM [2, 13] [%]	inhibition at 400 µM [2, 14] [%]	also measured
CC1(C)S[C@@H]2[C@H](NC(=O)Cc3ccccc3)C(=O)N2[C@H]1C(=O)O [Penicillin G, reference compound]	–	–	–	–	–	–	–	–	–	–	–	Log Reduction (average ±SD) [1]: 1.0 (±0.1); IC50 (S. aureus Newman; S. aureus Newman, read-out: Potency, IC50 Prior-to-biofilm formation): 0.27 µM; Potency, IC50 Prior-to-biofilm formation (S. aureus Newman; S. aureus Newman, value in parentheses): 0.090 µg/mL (≈ 0.269 µM); % inhibition, Post-biofilm formation (S. aureus Newman; at 400 μM, S. aureus Newman): 73% inhibition at 400 μM; IC50 ([2]; 50% inhibition of biofilm viability, S. aureus ATCC 25923, read-out: Potency, IC50 Prior-to-biofilm formation): 0.13 µM; Potency, IC50 Prior-to-biofilm formation ([2]; 50% inhibition of biofilm viability, S. aureus ATCC 25923, value in parentheses): 0.048 µg/mL (≈ 0.144 µM); % inhibition, Post-biofilm formation ([2]; S. aureus ATCC 25923): 57% inhibition at 400 μM
CC(C)C[C@H](NC(=O)[C@]1(C)CCC[C@]2(C)c3ccc(C(C)C)cc3CC[C@@H]12)C(=O)O [Compound 20, N-(Abiet-8,11,13-trien-18-oyl) L-leucine]	33.1 (≈ 80 µM)	134	51.8	55.6	21.4	62.2	25.7	121	50.2	99.8	100	Log Reduction (average ±SD) [1]: 3.9 (±0.4); cytotoxicity in HL cells (HL cells): did not cause statistically significant cytotoxicity; Inhibition percentage (±SD) Post-biofilm formation [3]: 12.9 (±5.1) %; Inhibition percentage (±SD) Prior-to-biofilm formation [3]: 62.4 (±2.2) %; Inhibition percentage (±SD) Post-biofilm formation (E. coli XL1 blue): 39.9 (±4.6) %; Inhibition percentage (±SD) Prior-to-biofilm formation (E. coli XL1 blue): 14.2 (±4.5) %; Inhibition percentage (±SD) Post-biofilm formation [4]: −12 (±6.0) %; Inhibition percentage (±SD) Prior-to-biofilm formation [4]: 53.4 (±4.9) %
CC(C)c1ccc2c(c1)CC[C@H]1[C@](C)(C(=O)N[C@@H](Cc3ccccc3)C(=O)O)CCC[C@]21C [Compound 21, N-(Abiet-8,11,13-trien-18-oyl) L-phenylalanine]	22.4 (≈ 50 µM)	83.7	35.9	37.5	16.1	35.5	15.9	109	48.7	99.6	100	Log Reduction (average ±SD) [1]: 4.3 (±0.2); cytotoxicity in HL cells (HL cells): did not cause statistically significant cytotoxicity; Inhibition percentage (±SD) Post-biofilm formation [3]: 46.9 (±9.9) %; Inhibition percentage (±SD) Prior-to-biofilm formation [3]: 57.3 (±4.6) %; Inhibition percentage (±SD) Post-biofilm formation (E. coli XL1 blue): 30.4 (±6.1) %; Inhibition percentage (±SD) Prior-to-biofilm formation (E. coli XL1 blue): 7.4 (±2.7) %; Inhibition percentage (±SD) Post-biofilm formation [4]: 44.4 (±8.4) %; Inhibition percentage (±SD) Prior-to-biofilm formation [4]: 58.1 (±4.1) %
CC(C)c1ccc2c(c1)CC[C@H]1[C@](C)(C(=O)N[C@H](C(=O)O)C(C)C)CCC[C@]21C [Compound 18, N-(Abiet-8,11,13-trien-18-oyl) L-valine]	–	–	–	–	–	–	–	–	–	99.2	100	–
CSCC[C@@H](NC(=O)[C@]1(C)CCC[C@]2(C)c3ccc(C(C)C)cc3CC[C@@H]12)C(=O)O [Compound 23, N-(Abiet-8,11,13-trien-18-oyl) D-methionine]	–	–	–	–	–	–	–	–	–	92.6	102	–
CC(C)c1ccc2c(c1)CC[C@H]1[C@](C)(C(=O)N[C@H](Cc3ccc(O)cc3)C(=O)O)CCC[C@]21C [Compound 24, N-(Abiet-8,11,13-trien-18-oyl) D-tyrosine]	–	–	–	–	–	–	–	–	–	26.3	102	–
nordehydroabietylamine	–	–	–	–	–	–	–	–	–	–	–	prevention of S. aureus biofilm formation (S. aureus biofilm): low micromolar range
CC(C)c1ccc2c(c1)CC[C@H]1[C@](C)(C(=O)O)CCC[C@]21C [dehydroabietic acid]	–	–	–	–	–	–	–	–	–	–	–	prevention of S. aureus biofilm formation (S. aureus biofilm): low micromolar range
CN[C@H](CC(C)C)C(=O)N[C@H]1C(=O)N[C@@H](CC(N)=O)C(=O)N[C@H]2C(=O)N[C@H]3C(=O)N[C@H](C(=O)N[C@H](C(=O)O)c4cc(O)cc(O)c4-c4cc3ccc4O)[C@H](O)c3ccc(c(Cl)c3)Oc3cc2cc(c3O[C@@H]2O[C@H](CO)[C@@H](O)[C@H](O)[C@H]2O[C@H]2C[C@](C)(N)[C@H](O)[C@H](C)O2)Oc2ccc(cc2Cl)[C@H]1O [Vancomycin, reference compound]	–	–	–	–	–	–	–	–	–	–	–	inhibition at 400 µM (S. aureus Newman; Staphylococcus aureus, NEWMAN, read-out: % inhibition, Post-biofilm formation): 37.9%; IC50 (S. aureus Newman; Staphylococcus aureus, NEWMAN, read-out: Potency, IC50 Prior-to-biofilm formation): 1.3 µM and 1.88 µg/mL; IC50 ([2]; Staphylococcus aureus, ATCC25923, read-out: Potency, IC50 Prior-to-biofilm formation): 710 nM and 1.03 µg/mL; % inhibition, Post-biofilm formation ([2]; S. aureus ATCC 25923): 25% inhibition at 400 μM
CC(C)c1ccc2c(c1)C(=O)C[C@H]1[C@](C)(C(=O)N[C@@H](CC3CCCCC3)C(=O)O)CCC[C@]21C [Compound 32, N-(7-Oxoabiet-8,11,13-trien-18-oyl) Cyclohexyl-L-alanine]	46.8 (≈ 100 µM)	93.1	63.5	43.5	29.7	60.6	28.3	145	67.9	102	102	–
CC(C)c1ccc2c(c1)CC[C@H]1[C@](C)(C(=O)N[C@H](Cc3ccccc3)C(=O)O)CCC[C@]21C [Compound 31, N-(Abiet-8,11,13-trien-18-oyl) D-phenylalanine]	31.3 (≈ 69.9 µM)	110	36.2	49.4	16.2	37.4	16.7	98.2	44	102	102	–
CC(C)c1ccc2c(c1)CC[C@H]1[C@](C)(CN)CCC[C@]21C [dehydroabietylamine]	–	–	–	–	–	–	–	–	–	–	–	prevention of S. aureus biofilm formation (S. aureus biofilm): low micromolar range
CC[C@H](NC(=O)[C@]1(C)CCC[C@]2(C)c3ccc(C(C)C)cc3CC[C@@H]12)C(=O)O [Compound 19, N-(abiet-8,11,13-trien-18-oyl) Ethyl-L-glycine]	–	–	–	–	–	–	–	–	–	98.9	99.8	–
